# ChEMBL document CHEMBL1201862, “PubChem BioAssay data set” (2004)
# Active and inactive are the calls of the source.
# What was measured:
# [1] = THP-1 cell cytotoxicity, dose response, cytotoxicity control for non-replicating M. tuberculosis project (AID 489025); format: functional
# cells = format: functional
# [2] = microbe, parasite or virus in culture; format: functional; conditions: Mycobacterium tuberculosis
# Protein RecA = target: T1, Protein RecA (Mycobacterium tuberculosis, UniProt P9WHJ3); assay: Fluorescence Cell-Free Homogeneous Dose Retest to Identify Inhibitors of RecA-Intein Splicing Activity. [Related pubchem assays (depositor defined):AID2097, AID2223, AID489010, AID492950]; format: functional
# T1 sequence (P9WHJ3 whole entry): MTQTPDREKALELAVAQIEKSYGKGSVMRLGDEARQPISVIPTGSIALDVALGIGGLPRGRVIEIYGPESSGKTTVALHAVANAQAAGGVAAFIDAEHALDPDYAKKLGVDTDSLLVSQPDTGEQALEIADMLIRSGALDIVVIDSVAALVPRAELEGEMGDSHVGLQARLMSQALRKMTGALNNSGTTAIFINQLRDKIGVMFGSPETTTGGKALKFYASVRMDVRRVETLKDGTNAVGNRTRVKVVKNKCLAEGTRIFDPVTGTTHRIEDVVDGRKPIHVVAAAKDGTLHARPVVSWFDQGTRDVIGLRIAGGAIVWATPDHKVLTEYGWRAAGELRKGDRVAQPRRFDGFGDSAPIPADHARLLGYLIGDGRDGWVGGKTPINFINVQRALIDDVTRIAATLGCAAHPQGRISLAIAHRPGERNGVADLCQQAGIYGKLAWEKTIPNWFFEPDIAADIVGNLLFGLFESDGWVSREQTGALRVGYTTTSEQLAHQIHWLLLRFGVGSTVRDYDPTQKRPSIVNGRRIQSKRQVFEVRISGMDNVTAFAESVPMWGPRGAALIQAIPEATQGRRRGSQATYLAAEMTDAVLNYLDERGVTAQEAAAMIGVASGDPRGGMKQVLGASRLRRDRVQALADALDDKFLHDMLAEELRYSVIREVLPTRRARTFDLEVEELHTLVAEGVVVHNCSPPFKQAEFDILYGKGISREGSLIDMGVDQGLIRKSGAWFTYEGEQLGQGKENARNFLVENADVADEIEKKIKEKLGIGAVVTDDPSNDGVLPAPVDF
# [3] = target: T2, Heat shock factor protein 1 (Mus musculus, UniProt P38532); assay: HSF1 potentiators in luciferase reporter cells, confirmation, cell-based, NIH3T3, luminescence, dose retest (AID 435004); format: functional;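 also: stress induced by proteasome inhibitor MG132 added 30 min after compound; luciferase reporter driven by HSF1 response element in NIH3T3 cells; actives raise luminescence as potentiators of the MG132 stress response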
# T2 sequence (P38532 whole entry): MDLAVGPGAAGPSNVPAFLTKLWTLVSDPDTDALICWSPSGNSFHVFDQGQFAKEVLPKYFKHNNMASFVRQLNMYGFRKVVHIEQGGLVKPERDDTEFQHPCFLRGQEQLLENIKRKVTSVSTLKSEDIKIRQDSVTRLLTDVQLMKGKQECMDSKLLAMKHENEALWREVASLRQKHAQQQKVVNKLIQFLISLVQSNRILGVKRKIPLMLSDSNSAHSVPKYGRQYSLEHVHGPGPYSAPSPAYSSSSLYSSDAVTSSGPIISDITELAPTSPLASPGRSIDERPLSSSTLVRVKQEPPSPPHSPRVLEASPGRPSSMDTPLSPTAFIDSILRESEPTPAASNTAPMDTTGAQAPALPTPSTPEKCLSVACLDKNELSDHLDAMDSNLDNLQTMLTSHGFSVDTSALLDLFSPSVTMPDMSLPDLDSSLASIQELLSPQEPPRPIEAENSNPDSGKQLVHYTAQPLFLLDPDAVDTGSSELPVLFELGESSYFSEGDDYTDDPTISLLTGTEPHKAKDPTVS
# [4] = target: T3, Microphthalmia-associated transcription factor (Homo sapiens, UniProt O75030); assay: TRPM1 promoter luciferase signal decrease, dose response, MITF inhibitor project, cell-based, SK-MEL-5, cherry-picked, set 3 (AID 493073); format: functional
# T3 sequence (O75030 whole entry): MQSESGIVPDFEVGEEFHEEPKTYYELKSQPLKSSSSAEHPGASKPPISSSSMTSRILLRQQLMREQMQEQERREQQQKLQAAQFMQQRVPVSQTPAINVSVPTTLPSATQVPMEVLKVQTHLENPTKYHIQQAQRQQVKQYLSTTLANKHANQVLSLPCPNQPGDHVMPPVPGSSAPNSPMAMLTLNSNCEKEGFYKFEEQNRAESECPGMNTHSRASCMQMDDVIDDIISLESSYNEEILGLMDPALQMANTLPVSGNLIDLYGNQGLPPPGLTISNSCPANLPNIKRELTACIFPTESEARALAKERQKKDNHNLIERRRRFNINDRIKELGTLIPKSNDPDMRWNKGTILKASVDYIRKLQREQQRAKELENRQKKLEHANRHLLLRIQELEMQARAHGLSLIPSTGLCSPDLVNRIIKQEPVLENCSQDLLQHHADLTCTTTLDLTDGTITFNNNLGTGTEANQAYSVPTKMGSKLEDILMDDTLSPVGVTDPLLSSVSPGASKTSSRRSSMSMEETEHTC
# [5] = target: T4, Replicative DNA helicase DnaB (Mycobacterium tuberculosis, UniProt P9WMR3); assay: DnaB intein splicing inhibitors, dose response, biochemical, cell-free fluorescence (AID 449749); format: functional
# T4 sequence (P9WMR3 whole entry): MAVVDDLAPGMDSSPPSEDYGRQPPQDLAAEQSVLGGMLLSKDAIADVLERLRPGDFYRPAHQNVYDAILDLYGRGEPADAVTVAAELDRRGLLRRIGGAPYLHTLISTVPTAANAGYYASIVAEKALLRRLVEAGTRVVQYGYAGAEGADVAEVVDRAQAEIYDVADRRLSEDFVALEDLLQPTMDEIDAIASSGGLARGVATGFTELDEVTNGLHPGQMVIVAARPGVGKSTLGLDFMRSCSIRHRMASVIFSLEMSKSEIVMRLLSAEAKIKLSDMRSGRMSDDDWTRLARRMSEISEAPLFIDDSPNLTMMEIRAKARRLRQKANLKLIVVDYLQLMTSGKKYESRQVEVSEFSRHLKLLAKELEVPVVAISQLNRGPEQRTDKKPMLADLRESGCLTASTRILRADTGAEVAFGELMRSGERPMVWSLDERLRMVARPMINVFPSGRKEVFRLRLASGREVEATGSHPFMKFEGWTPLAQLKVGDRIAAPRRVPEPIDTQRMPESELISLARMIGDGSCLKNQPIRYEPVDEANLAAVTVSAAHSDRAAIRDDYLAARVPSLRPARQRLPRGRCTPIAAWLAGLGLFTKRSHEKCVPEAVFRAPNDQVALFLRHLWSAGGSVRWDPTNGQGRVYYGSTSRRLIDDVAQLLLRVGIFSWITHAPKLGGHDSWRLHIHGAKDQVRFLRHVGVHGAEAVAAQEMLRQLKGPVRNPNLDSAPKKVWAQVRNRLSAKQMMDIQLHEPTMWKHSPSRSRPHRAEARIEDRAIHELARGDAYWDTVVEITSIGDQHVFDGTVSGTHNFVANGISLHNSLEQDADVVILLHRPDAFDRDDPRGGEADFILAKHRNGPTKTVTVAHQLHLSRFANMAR
# [6] = Vero E6 cell cytotoxicity, dose response, cytotoxicity control for non-replicating M. tuberculosis project, secondary assay (AID 492998); format: functional, VeroE6; conditions: Vero C1008
# T-cell = assay: inhibitors of CD8+ T cell–vesicle binding, dose response, mouse 2C CD8+ T cells, flow cytometry (AID 485284); format: functional
# [7] = target: T5, Sphingosine 1-phosphate receptor 4 (Homo sapiens, UniProt O95977); assay: Late-stage fluorescence dose response cell-based assay to identify agonists of the Sphingosine 1-Phosphate Receptor 4 (S1P4): purchased compounds EC50. [Related pubchem assays (depositor defined):AID1509, AID1523, AID1563, AID1686, AID1701, AID1801]; format: functional
# T5 sequence (O95977 whole entry): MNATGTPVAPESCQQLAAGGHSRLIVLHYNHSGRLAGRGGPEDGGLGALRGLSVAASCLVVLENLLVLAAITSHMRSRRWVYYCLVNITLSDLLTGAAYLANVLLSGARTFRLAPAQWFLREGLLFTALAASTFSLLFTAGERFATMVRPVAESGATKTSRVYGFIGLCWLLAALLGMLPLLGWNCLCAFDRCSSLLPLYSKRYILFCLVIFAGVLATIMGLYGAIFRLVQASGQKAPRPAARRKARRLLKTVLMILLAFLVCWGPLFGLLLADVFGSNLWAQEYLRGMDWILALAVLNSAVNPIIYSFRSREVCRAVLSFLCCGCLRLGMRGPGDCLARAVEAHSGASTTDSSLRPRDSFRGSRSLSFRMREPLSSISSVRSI
# Hexokinase-1 = Hexokinase-1 (Homo sapiens, UniProt P19367); assay: hexokinase 1 activators, dose response, selectivity assay for HKDC1 activator project, biochemical (AID 504762); format: functional
# Hexokinase HKDC1 = target: T6, Hexokinase HKDC1 (Homo sapiens, UniProt Q2TB90); assay: HKDC1 hexokinase activators, dose response, biochemical, W721R variant (AID 504730); format: functional
# T6 sequence (Q2TB90 whole entry): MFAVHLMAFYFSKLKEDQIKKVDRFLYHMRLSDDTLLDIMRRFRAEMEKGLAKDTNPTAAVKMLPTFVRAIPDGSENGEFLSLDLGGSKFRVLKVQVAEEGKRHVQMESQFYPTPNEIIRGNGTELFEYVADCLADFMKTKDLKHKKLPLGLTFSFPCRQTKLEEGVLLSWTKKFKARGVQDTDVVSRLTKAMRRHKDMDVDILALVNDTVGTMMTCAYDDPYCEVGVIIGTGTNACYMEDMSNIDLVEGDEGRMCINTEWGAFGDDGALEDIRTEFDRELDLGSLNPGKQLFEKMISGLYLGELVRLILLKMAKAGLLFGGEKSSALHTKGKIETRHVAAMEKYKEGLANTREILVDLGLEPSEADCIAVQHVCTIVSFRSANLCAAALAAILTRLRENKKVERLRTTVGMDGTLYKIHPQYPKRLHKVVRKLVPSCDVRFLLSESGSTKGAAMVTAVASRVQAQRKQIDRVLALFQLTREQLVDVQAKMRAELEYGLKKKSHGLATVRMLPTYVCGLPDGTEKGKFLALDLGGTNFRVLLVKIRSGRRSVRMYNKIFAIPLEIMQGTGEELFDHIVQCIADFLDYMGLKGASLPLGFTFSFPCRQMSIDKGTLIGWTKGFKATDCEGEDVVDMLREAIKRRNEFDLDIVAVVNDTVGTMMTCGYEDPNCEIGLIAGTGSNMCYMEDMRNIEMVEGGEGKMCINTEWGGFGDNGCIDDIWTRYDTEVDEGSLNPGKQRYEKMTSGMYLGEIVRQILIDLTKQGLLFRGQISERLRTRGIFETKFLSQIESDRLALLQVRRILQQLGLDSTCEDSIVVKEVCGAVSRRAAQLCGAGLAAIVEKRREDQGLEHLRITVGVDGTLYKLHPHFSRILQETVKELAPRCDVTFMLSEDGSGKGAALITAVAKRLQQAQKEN
# BJ [8] = assay: cytotoxicity toward BJ-TERT fibroblasts, dose response, cell-based, RAS-independent, luminescence (AID 1933); format: functional; conditions: Homo sapiens
# BJ [9] = assay: cytotoxicity toward Ras-transformed BJeLR fibroblasts, dose response, cell-based, alamar blue fluorescence, cherrypicked samples (AID 2631); format: functional; conditions: Homo sapiens;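 also: confirmatory dose-response assay in RAS-dependent BJ fibroblasts engineered with TERT, LT and ST, with cytotoxicity read by fluorescence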
# BJ [10] = assay: cytotoxicity toward BJ-TERT-LT-ST fibroblasts, dose response, cell-based, RAS-independent, luminescence (AID 1935); format: functional; conditions: Homo sapiens;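 also: BJ fibroblasts immortalized with TERT plus LT and ST oncogenes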
# BJ [11] = assay: cells; format: functional, cell-based; conditions: Homo sapiens
# [12] = cytotoxicity toward DRD oncogenic fibroblasts, dose response, cell-based, non-viral oncogenic, luminescence (AID 1934); format: functional; conditions: Homo sapiens
# [13] = cytotoxicity in HEK-293T cells, dose response, cytotoxicity control for BCR NF-kB inhibitor project, luminescence, B-cell screen hits (AID 489021); format: functional, cell-based;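 also: HEK-293T cells carrying an NF-kB luciferase reporter; cells exposed to compound for about 14 hours before viability readout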
# [14] = target: T2, Heat shock factor protein 1; assay: inhibition of MG132-induced HSE-luciferase signal, confirmation, cell-based, NIH3T3, luminescence, dose retest (AID 2382); format: functional;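 also: NIH3T3 fibroblasts with HSF1-driven luciferase reporter stressed by proteasome inhibitor MG132; luminescence from HSF1-driven luciferase expression after 8 hours of MG132 stress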
# [15] = Intein inhibitors as potential Tuberculosis drugs, a cytotoxicity screen. [Related pubchem assays (depositor defined):AID2221, AID2223, AID434968, AID435010, AID449749, AID449750, AID489010]; format: functional
# Paired box protein Pax-8 = Paired box protein Pax-8 (Homo sapiens, UniProt Q06710); assay: inhibitors of PAX8-driven TPO luciferase reporter, dose response, RMG-I cells, cherry-pick (AID 687027); format: functional, cell-based;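 also: luciferase reporter driven by Pax8 target thyroperoxidase promoter measured by SteadyGlo luminescence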
# [16] = non-specific cell cytotoxicity, dose response, cytotoxicity control for PAX8 inhibitor project, plate reader, dry powder samples (AID 743021); format: functional, cell-based
# [17] = target: T7, Runt-related transcription factor 1/Core-binding factor subunit beta (Homo sapiens, UniProt Q01196+Q13951); assay: inhibitors of RUNX1 Runt–CBFb-SMMHC binding, primary screen, biochemical, FRET, Cerulean-Runt, Venus-CBFb-SMMHC, uHTS (AID 1434); format: protein assay;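 also: partner is the CBFb-SMMHC leukemia fusion protein rather than wild-type CBFb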
# [18] = target: T7, Runt-related transcription factor 1/Core-binding factor subunit beta; assay: inhibitors of RUNX1 Runt–CBFb-SMMHC binding, biochemical, TR-FRET (AID 1438); format: protein assay
# T7 sequence (Q01196 whole entry, the tested form may be a part): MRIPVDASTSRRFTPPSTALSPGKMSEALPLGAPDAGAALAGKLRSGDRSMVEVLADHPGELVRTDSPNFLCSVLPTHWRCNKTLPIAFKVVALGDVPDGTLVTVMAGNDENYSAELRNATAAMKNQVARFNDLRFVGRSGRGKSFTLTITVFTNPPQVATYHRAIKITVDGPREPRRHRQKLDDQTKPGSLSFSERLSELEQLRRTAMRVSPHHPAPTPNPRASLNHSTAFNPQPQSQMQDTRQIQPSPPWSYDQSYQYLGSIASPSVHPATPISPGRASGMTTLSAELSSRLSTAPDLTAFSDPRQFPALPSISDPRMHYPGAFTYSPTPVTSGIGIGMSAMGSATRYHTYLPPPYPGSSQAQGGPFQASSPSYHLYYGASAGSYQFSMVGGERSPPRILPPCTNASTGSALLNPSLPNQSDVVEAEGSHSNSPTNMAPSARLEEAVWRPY
# T7 sequence (Q13951 whole entry, the tested form may be a part): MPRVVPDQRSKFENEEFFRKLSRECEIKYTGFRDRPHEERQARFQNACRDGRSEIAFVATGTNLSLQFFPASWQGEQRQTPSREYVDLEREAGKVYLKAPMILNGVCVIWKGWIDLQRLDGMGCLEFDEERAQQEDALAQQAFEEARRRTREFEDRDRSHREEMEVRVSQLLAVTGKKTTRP
# Hexokinase-1, sequence (P19367 whole entry): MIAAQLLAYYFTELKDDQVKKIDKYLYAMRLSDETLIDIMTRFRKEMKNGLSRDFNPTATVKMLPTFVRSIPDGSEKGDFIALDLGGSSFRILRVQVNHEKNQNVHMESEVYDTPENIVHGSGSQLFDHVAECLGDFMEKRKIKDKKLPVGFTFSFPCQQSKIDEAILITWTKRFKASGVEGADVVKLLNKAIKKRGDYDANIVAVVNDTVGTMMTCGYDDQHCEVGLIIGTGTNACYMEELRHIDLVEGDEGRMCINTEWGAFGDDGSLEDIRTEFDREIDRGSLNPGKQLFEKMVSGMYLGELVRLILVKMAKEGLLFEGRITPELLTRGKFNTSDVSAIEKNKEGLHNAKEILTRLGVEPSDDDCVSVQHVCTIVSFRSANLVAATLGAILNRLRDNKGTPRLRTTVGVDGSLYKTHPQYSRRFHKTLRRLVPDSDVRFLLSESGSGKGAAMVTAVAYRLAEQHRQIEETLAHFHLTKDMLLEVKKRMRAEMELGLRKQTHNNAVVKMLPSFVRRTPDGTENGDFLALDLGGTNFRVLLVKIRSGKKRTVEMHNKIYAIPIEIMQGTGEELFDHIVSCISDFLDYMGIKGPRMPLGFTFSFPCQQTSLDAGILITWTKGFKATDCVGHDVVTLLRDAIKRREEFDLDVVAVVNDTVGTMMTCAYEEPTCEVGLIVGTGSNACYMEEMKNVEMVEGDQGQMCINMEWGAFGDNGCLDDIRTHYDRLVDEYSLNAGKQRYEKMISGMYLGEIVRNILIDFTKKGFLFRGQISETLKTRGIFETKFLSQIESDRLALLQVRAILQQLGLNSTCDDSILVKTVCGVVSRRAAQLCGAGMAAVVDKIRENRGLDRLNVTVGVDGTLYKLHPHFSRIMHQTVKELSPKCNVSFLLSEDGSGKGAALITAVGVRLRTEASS
# Paired box protein Pax-8, sequence (Q06710 whole entry): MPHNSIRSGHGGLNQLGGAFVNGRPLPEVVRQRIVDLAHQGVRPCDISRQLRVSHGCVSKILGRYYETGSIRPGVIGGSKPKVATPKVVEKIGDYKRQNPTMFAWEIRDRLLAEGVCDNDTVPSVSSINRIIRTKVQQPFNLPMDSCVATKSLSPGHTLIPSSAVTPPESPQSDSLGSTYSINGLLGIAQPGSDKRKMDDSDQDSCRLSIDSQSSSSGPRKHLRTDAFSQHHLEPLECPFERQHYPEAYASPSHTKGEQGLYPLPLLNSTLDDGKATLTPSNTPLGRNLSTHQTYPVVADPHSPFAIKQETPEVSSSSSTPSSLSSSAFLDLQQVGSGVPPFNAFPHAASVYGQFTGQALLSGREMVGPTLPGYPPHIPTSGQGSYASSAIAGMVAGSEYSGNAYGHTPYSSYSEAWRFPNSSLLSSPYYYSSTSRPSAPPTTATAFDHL
smiles,measurement,setting,value
COC(=O)c1ccc2c(c1O)C(=O)c1ccccc1C2=O,CC50,[1],> 40 µM (active)
same,IC50,cells,4.52 µM (active)
same,CC50,[2],24.2 µM (active)
same,EC50,Protein RecA,0.925 µM (active)
same,EC50,[3],3.73 µM (active)
same,AC50,[4],1.61 µM (active)
same,AC50,[5],51.4 µM (active)
same,CC50,[6],> 20 µM (active)
Cc1ccc(S(=O)(=O)N2CCC(NC(=O)c3ccccc3)CC2)cc1,EC50,T-cell,7.83 µM (active)
Cc1nn(Cc2ccccc2)c(Cl)c1C(=O)OC(C)C(=O)NCc1ccccc1 (configuration not stated),EC50,[7],> 50 µM (inactive)
COc1ccccc1C1=NN=C(Nc2cccc(S(=O)(=O)N(C)C)c2)SC1,EC50,Hexokinase-1,20.1 µM (inactive)
same,EC50,Hexokinase HKDC1,19.5 µM (active)
C=CCOc1ccccc1CN(C(=O)CCl)c1ccc2c(c1)OCO2,EC50,BJ [8],0.7 µM (inconclusive)
same,CC50,[2],1.68 µM (active)
same,EC50,Protein RecA,0.481 µM (active)
same,EC50,BJ [9],> 66.7 µM (inactive)
same,EC50,BJ [10],17.3 µM (inconclusive)
same,EC50,BJ [11],4.58 µM (active)
same,EC50,[12],5.04 µM (active)
same,IC50,[13],62.1 µM (inactive)
same,EC50,[14],4.88 µM (active)
same,CC50,[15],2.07 µM (active)
same,AC50,[5],2.37 µM (active)
same,AC50,Paired box protein Pax-8,5.46 µM (active)
same,AC50,[16],9.67 µM (active)
CCOC(=O)N1CCC(NC(=O)c2ccc3c(c2)N(C)CCS3)CC1,IC50,[17],> 100 µM (inactive)
same,IC50,[18],> 100 µM (inactive)
